This note sets out measurements from ChEMBL document CHEMBL5518169, “Discovery of a 1,6-naphthyridin-4-one-based AXL inhibitor with improved pharmacokinetics and enhanced in vivo antitumor efficacy” (Eur J Med Chem, 2024).

Calls of active or inactive are those of the source. The rule behind the calls is not given here. Where only a bound is given, the exact number is not on record here.

Data set [1] concerns the target T1, Tyrosine-protein kinase receptor UFO (Homo sapiens, UniProt P30530).
T1 sequence (P30530 whole entry): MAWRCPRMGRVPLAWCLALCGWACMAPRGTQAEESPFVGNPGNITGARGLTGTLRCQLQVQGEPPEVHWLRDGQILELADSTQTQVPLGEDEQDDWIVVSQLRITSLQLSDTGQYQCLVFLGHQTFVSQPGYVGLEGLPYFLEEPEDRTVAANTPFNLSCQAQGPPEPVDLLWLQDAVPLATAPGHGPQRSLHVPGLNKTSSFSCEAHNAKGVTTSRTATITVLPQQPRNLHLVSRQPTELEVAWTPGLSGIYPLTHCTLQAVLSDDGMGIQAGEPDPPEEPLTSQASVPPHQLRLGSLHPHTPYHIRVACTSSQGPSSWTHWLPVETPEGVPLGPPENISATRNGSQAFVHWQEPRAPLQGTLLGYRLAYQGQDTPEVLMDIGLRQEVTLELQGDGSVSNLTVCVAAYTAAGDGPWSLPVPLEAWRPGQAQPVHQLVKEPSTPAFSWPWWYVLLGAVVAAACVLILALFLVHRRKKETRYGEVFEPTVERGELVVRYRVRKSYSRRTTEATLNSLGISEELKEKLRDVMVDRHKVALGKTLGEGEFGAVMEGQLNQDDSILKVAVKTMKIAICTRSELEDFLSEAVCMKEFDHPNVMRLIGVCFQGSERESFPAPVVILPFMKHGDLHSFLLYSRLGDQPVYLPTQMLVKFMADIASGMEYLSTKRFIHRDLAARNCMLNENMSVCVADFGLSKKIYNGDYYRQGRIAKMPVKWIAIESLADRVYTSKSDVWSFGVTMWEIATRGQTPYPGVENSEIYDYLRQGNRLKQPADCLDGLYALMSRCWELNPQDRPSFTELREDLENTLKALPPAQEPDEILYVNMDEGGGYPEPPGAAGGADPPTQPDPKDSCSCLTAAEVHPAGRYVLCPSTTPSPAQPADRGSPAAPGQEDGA
Description: Inhibition of AXL (unknown origin) by ELISA analysis

The nature of data set [2]: Metabolic stability in human liver microsomes assessed as half life preincubated with compound for 10 mins followed by NADPH addition and measured after 60 mins by LC-MS/MS analysis. Type of data set: ADME, Microsome. To be noted: time 70 min.
Data set [3] is described as follows: Metabolic stability in human liver microsomes assessed as parent compound remaining preincubated with compound for 10 mins followed by NADPH addition and measured after 60 mins by LC-MS/MS analysis. Type of data set: ADME, Microsome. Particulars: time 70 min, read-out: Stability.
Data set [4] in a line: Tmax in Sprague-Dawley rat at 3 mg/kg, po measured upto 24 hrs by LC-MS/MS analysis. Type of data set: ADME, organism-based. To be noted: in vivo.
Data set [5] in a line: Half life in Sprague-Dawley rat at 3 mg/kg, po measured upto 24 hrs by LC-MS/MS analysis. Format: ADME, organism-based. Particulars: in vivo.
Data set [6] is described as follows: Cmax in Sprague-Dawley rat at 3 mg/kg, po measured upto 24 hrs by LC-MS/MS analysis. Type of data set: ADME, organism-based. Particulars: in vivo.
Data set [7] is described as follows: AUC (0 to infinity) in Sprague-Dawley rat at 3 mg/kg, po measured upto 24 hrs by LC-MS/MS analysis. To be noted: in vivo. Format: ADME, organism-based.
Data set [8] can be described thus: MRT (0 to infinity) in Sprague-Dawley rat at 3 mg/kg, po measured upto 24 hrs by LC-MS/MS analysis. Type of data set: ADME, organism-based. To be noted: in vivo.
For data set [9], the target named is T2, Tyrosine-protein kinase receptor UFO (Mus musculus) (UniProt Q00993).
T2 sequence (whole entry): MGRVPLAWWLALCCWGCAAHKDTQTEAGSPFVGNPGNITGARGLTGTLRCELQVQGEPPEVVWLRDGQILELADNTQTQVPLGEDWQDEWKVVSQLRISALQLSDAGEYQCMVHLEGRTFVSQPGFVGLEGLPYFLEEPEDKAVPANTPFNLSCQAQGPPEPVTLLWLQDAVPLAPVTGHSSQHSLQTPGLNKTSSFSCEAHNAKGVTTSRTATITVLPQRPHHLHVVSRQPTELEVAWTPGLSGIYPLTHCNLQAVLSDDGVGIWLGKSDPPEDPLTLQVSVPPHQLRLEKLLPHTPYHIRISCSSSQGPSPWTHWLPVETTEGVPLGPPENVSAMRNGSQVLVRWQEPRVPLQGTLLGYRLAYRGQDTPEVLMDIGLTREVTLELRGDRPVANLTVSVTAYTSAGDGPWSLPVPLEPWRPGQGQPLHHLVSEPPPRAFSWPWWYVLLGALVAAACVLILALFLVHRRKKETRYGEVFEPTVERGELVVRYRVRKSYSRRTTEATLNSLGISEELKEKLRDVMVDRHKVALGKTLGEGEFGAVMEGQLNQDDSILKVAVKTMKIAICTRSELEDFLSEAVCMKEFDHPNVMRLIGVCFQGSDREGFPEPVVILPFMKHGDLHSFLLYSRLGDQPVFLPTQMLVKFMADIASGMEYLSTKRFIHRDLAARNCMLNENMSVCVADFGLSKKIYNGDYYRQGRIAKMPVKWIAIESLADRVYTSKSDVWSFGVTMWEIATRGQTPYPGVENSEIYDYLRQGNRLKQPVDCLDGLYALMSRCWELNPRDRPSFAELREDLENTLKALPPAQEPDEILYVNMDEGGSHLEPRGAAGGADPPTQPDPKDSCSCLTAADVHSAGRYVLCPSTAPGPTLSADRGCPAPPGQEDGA
The data set is described as follows: Inhibition of AXL phosphorylation in mouse BaF3/TEL-AXL cells incubated for 2 hrs by Western blot analysis. Type of data set: cell-based. To be noted: dose 2-500 nM.

Data set [10] has as its target RAC-alpha serine/threonine-protein kinase (Mus musculus) (UniProt P31750). Nature of the data set: Inhibition of AKT phosphorylation in mouse BaF3/TEL-AXL cells incubated for 2 hrs by Western blot analysis. Format: cell-based. Particulars: dose 2-500 nM.
Data set [11] can be described thus: Antitumor activity against mouse BaF3/TEL-AXL cells xenografted in mouse assessed as tumor growth inhibition at 25 mg/kg, po administered for 7 days. Type of data set: functional. To be noted: 168 h, time 7 day, read-out: TGI.
Data set [12] in a line: Antitumor activity against mouse BaF3/TEL-AXL cells xenografted in mouse assessed as tumor growth inhibition at 50 mg/kg, po administered for 7 days. To be noted: 168 h, time 7 day, read-out: TGI. Format: functional.
A short description of data set [13]: Antitumor activity against mouse BaF3/TEL-AXL cells xenografted in mouse assessed as tumor growth inhibition at 100 mg/kg, po administered for 7 days. Format: functional. Particulars: 168 h, time 7 day, read-out: TGI.
Another data set relates to BaF3/TEL-AXL. Nature of the data set: Antitumor activity against mouse BaF3/TEL-AXL cells xenografted in mouse assessed as tumor regression at 50 to 100 mg/kg, po administered for 7 days. Particulars: dose 50-100 mg/kg, time 7.0 day. Format: functional, organism-based.
Data set [14] is described as follows: Toxicity in mouse xenografted with mouse BaF3/TEL-AXL cells assessed as body weight loss at 25 to 100 mg/kg, po administered for 7 days. Particulars: in vivo, 168 h, dose 25-100 mg/kg, time 7 day. Type of data set: organism-based.
Another data set is described as follows: cells. Particulars: Mus musculus, BaF3/TEL-AXL, 72 h.
The subject of another data set is MKN-45. Nature of the data set: cells. To be noted: Homo sapiens, MKN-45, 72 h.
A short description of data set [15]: Toxicity in mouse xenografted with mouse BaF3/TEL-AXL cells assessed as body weight loss at 50 mg/kg, po administered for 7 days. Particulars: in vivo, 168 h, time 7 day. Format: organism-based.

Sequence of RAC-alpha serine/threonine-protein kinase (Mus musculus) (P31750 whole entry): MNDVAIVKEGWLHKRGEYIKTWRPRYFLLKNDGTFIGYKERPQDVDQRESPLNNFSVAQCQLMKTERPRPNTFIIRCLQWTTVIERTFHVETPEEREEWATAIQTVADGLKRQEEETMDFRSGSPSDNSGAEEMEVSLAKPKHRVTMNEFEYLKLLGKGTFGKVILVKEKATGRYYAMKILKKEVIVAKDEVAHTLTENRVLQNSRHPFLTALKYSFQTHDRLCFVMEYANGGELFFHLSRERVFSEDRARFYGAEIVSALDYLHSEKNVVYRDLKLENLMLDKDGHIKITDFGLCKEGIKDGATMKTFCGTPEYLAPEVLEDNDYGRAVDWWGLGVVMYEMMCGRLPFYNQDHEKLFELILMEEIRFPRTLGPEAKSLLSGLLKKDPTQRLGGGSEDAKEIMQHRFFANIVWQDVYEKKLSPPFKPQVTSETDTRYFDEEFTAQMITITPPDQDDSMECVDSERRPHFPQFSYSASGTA
Description for MKN-45: Antiproliferative activity against human MKN-45 cells assessed as inhibition of cell proliferation incubated for 72 hrs by CCK-8 assay

For `CC(C)n1cc(C(=O)Nc2cc(F)c(-c3c[nH]c4ncnc(N)c34)cc2F)c(=O)c(-c2ccc(F)cc2)c1`, in data set [1], the IC50 was below 0.2 nM.
For the compound `CC(C)n1cc(-c2ccc(F)cc2)c(=O)c2c(Nc3ccc(-c4cc(-c5cnn(C)c5)cnc4N)c(F)c3)nccc21`, the values for the half-life in [2] and in data set [5] were 2.57 h and 10.1 h, respectively. In data set [3], the remaining at 1 h turned out to be 76.3%. Moreover, the Tmax in [4] stood at 2 h. Also, the Cmax in [6] is 2910 ng/mL. The compound further returned an AUC(0-inf) in data set [7] of 59800 ng·h/mL. Further, the MRT inf in data set [8] stood at 16.5 h. Moreover, the inhibition entry in data set [9] and in data set [10] was “Dose-Dependent Effect” each time. In addition, the inhibition in vivo at 25 mg/kg in data set [11] came to 89.8%. The inhibition in vivo at 50 mg/kg in [12] turned out to be 104%. The inhibition in vivo at 100 mg/kg in data set [13] amounted to 105%. The result in the data set on BaF3/TEL-AXL was Active. In data set [14], the Activity entry is “Non-Toxic”. The IC50 in “cells” is below 1 nM; in the data set with MKN-45, above 100 nM.
Regarding `Nc1nc(Nc2ccc3c(c2)CC[C@@H](N2CCCC2)CC3)nn1-c1cc2c(nn1)-c1ccccc1CCC2` [BEMCENTINIB], the inhibition in vivo at 50 mg/kg in data set [12] amounted to 107%. Also, the Activity entry in [15] is given as “Non-Toxic”.
In the case of `CC(C)n1cc(-c2ccc(F)cc2)c(=O)c2c(Nc3ccc(-c4cn(C)c5ncnc(N)c45)c(F)c3)nccc21`, the half-life is 0.765 h in data set [2] and 3.82 h in data set [5]. The remaining at 1 h in [3] was 47%. In addition, the Tmax in data set [4] came out at 1.5 h. The compound further returned a Cmax in data set [6] of 187 ng/mL. For the same compound, the AUC(0-inf) in data set [7] was 1300 ng·h/mL. The MRT inf in data set [8] came to 5.96 h. Further, the values for the IC50 in the data set “cells” and with MKN-45 were 1 nM and above 100 nM, respectively.
